Paper PMC5727165, “A switch in nucleotide affinity governs activation of the Src and Tec family kinases” (Scientific Reports, 2017)
“Also recorded” adds a separate entry of the source.

Columns and labels:
[1] = molecular target: T1, Src^32KΔC L255A (Mus musculus, UniProt P05480, L257A); experiment: Differential scanning fluorimetry (thermal stability vs nucleotide concentration); format: binding; settings: Src^32KΔC L255A non-phosphorylated; DSF
T1 construct: mouse Src^85-523 (Src^32KΔC); GST (cleaved yes); made in house; host or cells: baculovirus-infected Sf9 insect cells
Description: Figure 3 An allosteric switch triggers nucleotide exchange. (a) Hydrophobic stack conservation in Src family kinases. The table illustrates the amino acid identity at each of the three positions in the hydrophobic stack in addition to the invariant tryptophan (Trp260 in Src) for all Src family kinase members. The positions are presented according to their N- to C-terminal order in the primary sequences. Where it was not possible to unambiguously determine the identity of the amino acid contributed by the SH2-kinase variable linker (V3), the residue is denoted by a question mark. (b) Small angle X-ray scattering of Itk^32K L351A (black). The scattering curve for wild type Itk^32K (cyan) is overlaid for comparison. […] (c) Rigid body modelling of Itk^32K L351A and fit to ab initio molecular envelope. Displacement of both the SH3 and SH2 domains is required for a good fit to the experimental scattering curve. (d) Determination of the binding constants of Itk^32K L351A for nucleotides by fluorescence anisotropy. […] (e) Determination of the thermal stabilities and relative binding affinities of non-phosphorylated Src^32KΔC L255A for nucleotides by differential scanning fluorimetry. […] TEXT PRINTED IN THE PICTURE: (d) Mant-ADP: Itk^32K L351A (non-phos) Kd (μM): 21.0 ± 2.1 | (d) Mant-ATP: Itk^32K L351A (non-phos) Kd (μM): 31.7 ± 2.7 | (e) ADP: Src^32KΔC L255A (non-phos) [nuc]1/2 (μM): 310 ± 20; Src^32KΔC L255A (non-phos) Tm^max (°C): 52.9; Src^32KΔC L255A (non-phos) ΔTm^max (°C): + 6.8 | (e) ATP: Src^32KΔC L255A (non-phos) [nuc]1/2 (μM): 100 ± 10; Src^32KΔC L255A (non-phos) Tm^max (°C): 54.2; Src^32KΔC L255A (non-phos) ΔTm^max (°C): + 8.1 | (e) apo: Src^32KΔC L255A (non-phos) Tm^max (°C): 46.1
Due to limiting protein concentrations, we were unable to obtain a binding curve by fluorescence anisotropy, so we instead used thermal stability measurements to investigate its nucleotide-binding properties. Determination of accurate binding constants from thermal stability measurements requires knowledge of the enthalpy of unfolding. However, for a given protein, the enthalpy of unfolding is independent of the ligand being tested, so comparison of the concentrations of nucleotide required for half maximal stabilisation is valid.
(§1) Thermal stabilities as a function of nucleotide concentration were measured by differential scanning fluorimetry (DSF). Samples contained 0.1 mg/ml protein in 50 mM Tris pH 7.5, 150 mM NaCl, 1 mM TCEP, and 5 mM MgCl2 with ADP, ATP, or AMPPNP concentrations ranging from 0–16 mM. Samples were measured in triplicate using a BioRad iQ™5 Multicolor Real-Time PCR Detection System. For detection of phosphorylated protein, samples were diluted and 1 ng and 15 ng were loaded to SDS-PAGE for Src and Itk proteins, respectively. Phosphorylation was measured by immunoblot.

[2] = molecular target: T2, Itk^32K (Homo sapiens, UniProt Q08881); experiment: as above; format: binding; settings: same nucleotide concentrations, vs ATP or AMPPNP
T2 construct: Human Itk^171–620 (Itk^32K); GST (cleaved yes); made in house; host or cells: baculovirus-infected Sf9 insect cells
T2 sequence (Q08881 171-620): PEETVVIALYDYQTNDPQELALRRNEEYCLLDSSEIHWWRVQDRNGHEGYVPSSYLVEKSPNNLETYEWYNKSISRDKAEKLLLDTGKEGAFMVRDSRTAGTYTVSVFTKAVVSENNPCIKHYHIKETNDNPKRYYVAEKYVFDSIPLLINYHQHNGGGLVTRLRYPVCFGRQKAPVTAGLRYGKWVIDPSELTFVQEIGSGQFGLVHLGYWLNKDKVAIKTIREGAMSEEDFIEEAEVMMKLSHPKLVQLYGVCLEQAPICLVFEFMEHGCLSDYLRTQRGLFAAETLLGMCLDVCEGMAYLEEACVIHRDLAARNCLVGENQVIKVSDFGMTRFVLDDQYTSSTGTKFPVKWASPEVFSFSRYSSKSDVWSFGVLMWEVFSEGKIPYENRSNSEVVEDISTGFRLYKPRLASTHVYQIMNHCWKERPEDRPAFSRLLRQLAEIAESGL
Method: as §1, with “We noted that the thermal stability of Src^32K initially decreases at low concentrations of ATP, before rising again at higher concentrations. This was reproducible and correlates with autophosphorylation of Tyr416 during the course of the assay (Supplementary Fig. 4h). Thermal” for “Thermal”

Tm^max [1]: 52.9 °C
[nuc]1/2 (nucleotide concentration for half maximal stabilisation) [1]: 310 ± 20 µM
Compound: Nc1ncnc2c1ncn2[C@@H]1O[C@H](COP(=O)(O)OP(=O)(O)O)[C@@H](O)[C@H]1O [ADP]
thermal stabilisation compared with other nucleotides [2]: to a greater extent; also recorded: higher thermal stability
